Values of other authors as cited in patent publication US7723070B2, “Overexpression of aminoacyl-tRNA synthetases for efficient production of engineered proteins containing amino acid analogues” (California Institute of Technology, priority 2000, dated 2010).

Target: T1, methionyl tRNA synthetase (MetRS) (Escherichia coli, UniProt P00959)
T1 sequence (P00959 1-548 limits assumed): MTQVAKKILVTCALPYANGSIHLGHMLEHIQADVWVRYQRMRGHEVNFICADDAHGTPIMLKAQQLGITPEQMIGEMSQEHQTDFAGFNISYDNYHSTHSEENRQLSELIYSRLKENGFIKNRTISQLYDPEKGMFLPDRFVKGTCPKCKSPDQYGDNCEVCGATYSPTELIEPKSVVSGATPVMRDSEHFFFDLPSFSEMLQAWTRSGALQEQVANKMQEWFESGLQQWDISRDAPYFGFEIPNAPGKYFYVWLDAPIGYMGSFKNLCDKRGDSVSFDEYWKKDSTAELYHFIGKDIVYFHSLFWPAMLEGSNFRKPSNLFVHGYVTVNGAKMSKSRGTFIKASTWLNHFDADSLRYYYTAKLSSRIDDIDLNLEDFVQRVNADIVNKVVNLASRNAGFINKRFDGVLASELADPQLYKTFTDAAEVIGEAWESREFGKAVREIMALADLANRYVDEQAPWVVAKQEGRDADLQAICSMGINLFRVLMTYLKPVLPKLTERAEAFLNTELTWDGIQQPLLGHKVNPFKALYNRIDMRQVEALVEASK
Details: cited from earlier work

CSCC[C@H](N)C(=O)O [Analogue 1, L-methionine, reference compound]
kcat, literature value: 13.5 s⁻¹
Km (read-out: Km, previously reported, literature value): 24 ± 2 µM
